Source: patent US10150764B2, “Substituted benzene compounds” (Epizyme, Inc., priority 2013, dated 2018)

What was measured:
[1] = test system: WSU-DLCL2 cells; assay: Cell proliferation analysis, WSU-DLCL2 (Cell Titer Glo); format: cell-based; conditions: Homo sapiens, WSUDLCL2, 144 h, 6 days incubation, ATP readout
Text: Cell Proliferation Analysis
WSU-DLCL2 suspension cells were purchased from DSMZ (German Collection of Microorganisms and Cell Cultures, Braunschweig, Germany), RPMI/Glutamax Medium, Penicillin-Streptomycin, Heat Inactivated Fetal Bovine Serum were purchased from Life Technologies, Grand Island, N.Y., USA, V-bottom polypropylene 384-well plates were purchased from Greiner Bio-One, Monroe, N.C., USA. Cell culture 384-well white opaque plates were purchased from Perkin Elmer, Waltham, Mass., USA. Cell-Titer Glo® was purchased from Promega Corporation, Madison, Wis., USA. SpectraMax M5 plate reader was purchased from Molecular Devices LLC, Sunnyvale, Calif., USA.
WSU-DLCL2 suspension cells were maintained in growth medium (RPMI 1640 supplemented with 10% v/v heat inactivated fetal bovine serum and cultured at 37° C. under 5% CO2. Under assay conditions, cells were incubated in Assay Medium (RPMI 1640 supplemented with 20% v/v heat inactivated fetal bovine serum and 100 units/mL penicillin-streptomycin) at 37° C. under 5% CO2.
For the assessment of the effect of compounds on the proliferation of the WSU-DLCL2 cell line, exponentially growing cells were plated in 384-well white opaque plates at a density of 1250 cell/ml in a final volume of 50 μl of assay medium. A compound source plate was prepared by performing triplicate nine-point 3-fold serial dilutions in DMSO, beginning at 10 mM (final top concentration of compound in the assay was 20 μM and the DMSO was 0.2%). A 100 nL aliquot from the compound stock plate was added to its respective well in the cell plate. […] After addition of compounds, assay plates were incubated for 6 days at 37° C., 5% CO2, relative humidity >90% for 6 days. Cell viability was measured by quantization of ATP present in the cell cultures, adding 35 μl of Cell Titer Glo® reagent to the cell plates. Luminescence was read in the SpectraMax M5. The concentration inhibiting cell viability by 50% was determined using a 4-parametric fit of the normalized dose response curves.

[2] = target: wild-type EZH2 (PRC2 enzyme) (Homo sapiens (Human), UniProt Q15910); assay: PRC2 enzyme assay on peptide substrate, wild-type EZH2 (H3K27me0 peptide, 3H-SAM Flashplate); format: biochemical; conditions: wild-type PRC2 4 nM, read-out: WT EZH2 IC50
Procedure: (§1) Human PRC2 enzymes were purified as 4-component enzyme complexes co-expressed in Spodoptera frugiperda (sf9) cells using a baculovirus expression system. […] The EED subunit contained an N-terminal FLAG tag that was used to purify the entire 4-component complex from sf9 cell lysates.
(§2) The assays were all performed in a buffer consisting of 20 mM bicine (pH=7.6), 0.5 mM DTT, 0.005% BSG and 0.002% Tween20, prepared on the day of use. […] DMSO (1 μL) was added to columns 11, 12, 23, 24, rows A-H for the maximum signal control, and SAH, a known product and inhibitor of PRC2 (1 μL) was added to columns 11, 12, 23, 24, rows I-P for the minimum signal control. A cocktail (40 μL) containing the wild-type PRC2 enzyme and H3K27me0 peptide or any of the Y641 mutant enzymes and H3K27me2 peptide was added by Multidrop Combi (Thermo). The compounds were allowed to incubate with PRC2 for 30 min at 25° C., then a cocktail (10 μL) containing a mixture of non-radioactive and ^3H-SAM was added to initiate the reaction (final volume=51 μL). […] The assays were stopped by the addition of non-radioactive SAM (10 μL) to a final concentration of 600 μM, which dilutes the ^3H-SAM to a level where its incorporation into the peptide substrate is no longer detectable. 50 of the reaction in the 384-well polypropylene plate was then transferred to a 384-well Flashplate and the biotinylated peptides were allowed to bind to the streptavidin surface for at least 1 h before being washed three times with 0.1% Tween20 in a Biotek ELx405 plate washer. The plates were then read in a PerkinElmer TopCount platereader to measure the quantity of ^3H-labeled peptide bound to the Flashplate surface, measured as disintegrations per minute (dpm) or alternatively, referred to as counts per minute (cpm).

[3] = target: EZH2 Y641F mutant (PRC2 enzyme) (Homo sapiens (Human), UniProt Q15910, Y641F); assay: PRC2 enzyme assay on peptide substrate, EZH2 Y641F mutant (H3K27me2 peptide, 3H-SAM Flashplate); format: biochemical; conditions: Y641F mutant PRC2 4 nM
Procedure: as §1, §2

[4] = test system: H3K27me3 in WSU-DLCL2 cells; assay: WSU-DLCL2 methylation assay (H3K27me3 ELISA); format: cell-based, human; conditions: Homo sapiens, WSUDLCL2, 96 hours incubation, H3K27me3 normalised to total H3
Text: WSU-DLCL2 Methylation Assay
WSU-DLCL2 suspension cells were purchased from DSMZ (German Collection of Microorganisms and Cell Cultures, Braunschweig, Germany). RPMI/Glutamax Medium, Penicillin-Streptomycin, Heat Inactivated Fetal Bovine Serum, and D-PBS were purchased from Life Technologies, Grand Island, N.Y., USA. Extraction Buffer and Neutralization Buffer (5×) were purchased from Active Motif, Carlsbad, Calif., USA. Rabbit anti-Histone H3 antibody was purchased from Abcam, Cambridge, Mass., USA. Rabbit anti-H3K27me3 and HRP-conjugated anti-rabbit-IgG were purchased from Cell Signaling Technology, Danvers, Mass., USA. TMB “Super Sensitive” substrate was sourced from BioFX Laboratories, Owings Mills, Md., USA. IgG-free Bovine Serum Albumin was purchased from Jackson ImmunoResearch, West Grove, Pa., USA. PBS with Tween (10×PBST) was purchased from KPL, Gaithersburg, Md., USA. Sulfuric Acid was purchased from Ricca Chemical, Arlington, Tex., USA. Immulon ELISA plates were purchased from Thermo, Rochester, N.Y., USA. V-bottom cell culture plates were purchased from Corning Inc., Corning, N.Y., USA. V-bottom polypropylene plates were purchased from Greiner Bio-One, Monroe, N.C., USA.
WSU-DLCL2 suspension cells were maintained in growth medium (RPMI 1640 supplemented with 10% v/v heat inactivated fetal bovine serum and 100 units/mL penicillin-streptomycin) and cultured at 37° C. under 5% CO2. Under assay conditions, cells were incubated in Assay Medium (RPMI 1640 supplemented with 20% v/v heat inactivated fetal bovine serum and 100 units/mL penicillin-streptomycin) at 37° C. under 5% CO2 on a plate shaker.
WSU-DLCL2 cells were seeded in assay medium at a concentration of 50,000 cells per mL to a 96-well V-bottom cell culture plate with 200 μL per well. […] Plates were incubated on a titer-plate shaker at 37° C., 5% CO2 for 96 hours. After four days of incubation, plates were spun at 241×g for five minutes and medium was aspirated gently from each well of cell plate without disturbing cell pellet. Pellet was resuspended in: 200 μL DPBS and plates were spun again at 241×g for five minutes. The supernatant was aspirated and cold (4° C.) Extraction buffer (100 μL) was added per well. Plates were incubated at 4° C. on orbital shaker for two hours. Plates were spun at 3427×g×10 minutes. Supernatant (80 μL per well) was transferred to its respective well in 96 well V-bottom polypropylene plate. Neutralization Buffer 5× (20 μL per well) was added to V-bottom polypropylene plate containing supernatant. V-bottom polypropylene plates containing crude histone preparation (CHP) were incubated on orbital shaker×five minutes. Crude Histone Preparations were added (2 μL per well) to each respective well into duplicate 96 well ELISA plates containing 100 μL Coating Buffer (1×PBS+BSA 0.05% w/v). Plates were sealed and incubated overnight at 4° C. The following day, plates were washed three times with 300 μL per well 1×PBST. […] For H3K27me3 detection, 100 μL of HRP conjugated anti-rabbit IgG antibody diluted to 1:4000 in ELISA diluent was added per well. Plates were incubated at room temperature for 90 minutes. […] TMB substrate 100 μL was added per well. Histone H3 plates were incubated for five minutes at room temperature. H3K27me3 plates were incubated for 10 minutes at room temperature. The reaction was stopped with sulfuric acid 1N (100 μL per well). Absorbance for each plate was read at 450 nm.
Each plate included eight control wells DMSO only treatment (Minimum Inhibition) as well as eight control wells for maximum inhibition (Background wells).
The average of the ratio values for each control type was calculated and used to determine the percent inhibition for each test well in the plate. Test compound was serially diluted three-fold in DMSO for a total of ten test concentrations, beginning at 25 μM.

Chain of EZH2 Y641F mutant (PRC2 enzyme) (Q15910 whole entry Y641F): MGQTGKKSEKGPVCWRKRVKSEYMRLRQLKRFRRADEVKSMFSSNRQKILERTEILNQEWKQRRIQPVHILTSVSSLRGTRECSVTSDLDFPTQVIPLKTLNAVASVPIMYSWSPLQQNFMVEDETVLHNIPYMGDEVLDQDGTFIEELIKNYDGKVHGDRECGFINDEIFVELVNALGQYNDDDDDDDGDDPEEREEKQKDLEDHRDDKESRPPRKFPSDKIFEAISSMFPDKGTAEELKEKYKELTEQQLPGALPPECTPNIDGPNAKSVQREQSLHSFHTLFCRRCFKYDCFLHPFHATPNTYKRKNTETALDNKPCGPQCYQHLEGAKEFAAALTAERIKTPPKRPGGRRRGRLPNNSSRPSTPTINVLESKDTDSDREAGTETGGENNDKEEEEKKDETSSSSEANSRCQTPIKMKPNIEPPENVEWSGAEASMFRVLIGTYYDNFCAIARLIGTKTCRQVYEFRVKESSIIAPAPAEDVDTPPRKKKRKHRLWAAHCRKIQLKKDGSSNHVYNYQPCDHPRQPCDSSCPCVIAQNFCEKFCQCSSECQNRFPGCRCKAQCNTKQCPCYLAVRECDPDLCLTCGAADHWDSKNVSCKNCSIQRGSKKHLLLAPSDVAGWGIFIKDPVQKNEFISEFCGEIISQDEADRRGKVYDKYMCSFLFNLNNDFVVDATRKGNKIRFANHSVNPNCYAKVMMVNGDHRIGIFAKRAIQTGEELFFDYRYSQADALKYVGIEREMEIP
Chain of EZH2 Y641F mutant (PRC2 enzyme) (O75530 whole entry partner): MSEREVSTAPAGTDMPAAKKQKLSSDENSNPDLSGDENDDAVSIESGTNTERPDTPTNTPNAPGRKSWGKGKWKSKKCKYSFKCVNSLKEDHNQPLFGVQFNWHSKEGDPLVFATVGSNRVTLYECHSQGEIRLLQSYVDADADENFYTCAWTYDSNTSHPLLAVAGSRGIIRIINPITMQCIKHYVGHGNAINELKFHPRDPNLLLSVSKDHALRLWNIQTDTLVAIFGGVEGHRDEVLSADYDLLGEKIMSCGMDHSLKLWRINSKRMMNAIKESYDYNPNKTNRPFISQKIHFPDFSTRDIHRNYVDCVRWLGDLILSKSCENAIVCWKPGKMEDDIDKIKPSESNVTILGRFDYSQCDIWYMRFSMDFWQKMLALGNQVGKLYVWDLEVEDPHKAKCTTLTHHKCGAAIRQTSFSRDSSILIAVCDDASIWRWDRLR
Chain of EZH2 Y641F mutant (PRC2 enzyme) (Q15022 whole entry partner): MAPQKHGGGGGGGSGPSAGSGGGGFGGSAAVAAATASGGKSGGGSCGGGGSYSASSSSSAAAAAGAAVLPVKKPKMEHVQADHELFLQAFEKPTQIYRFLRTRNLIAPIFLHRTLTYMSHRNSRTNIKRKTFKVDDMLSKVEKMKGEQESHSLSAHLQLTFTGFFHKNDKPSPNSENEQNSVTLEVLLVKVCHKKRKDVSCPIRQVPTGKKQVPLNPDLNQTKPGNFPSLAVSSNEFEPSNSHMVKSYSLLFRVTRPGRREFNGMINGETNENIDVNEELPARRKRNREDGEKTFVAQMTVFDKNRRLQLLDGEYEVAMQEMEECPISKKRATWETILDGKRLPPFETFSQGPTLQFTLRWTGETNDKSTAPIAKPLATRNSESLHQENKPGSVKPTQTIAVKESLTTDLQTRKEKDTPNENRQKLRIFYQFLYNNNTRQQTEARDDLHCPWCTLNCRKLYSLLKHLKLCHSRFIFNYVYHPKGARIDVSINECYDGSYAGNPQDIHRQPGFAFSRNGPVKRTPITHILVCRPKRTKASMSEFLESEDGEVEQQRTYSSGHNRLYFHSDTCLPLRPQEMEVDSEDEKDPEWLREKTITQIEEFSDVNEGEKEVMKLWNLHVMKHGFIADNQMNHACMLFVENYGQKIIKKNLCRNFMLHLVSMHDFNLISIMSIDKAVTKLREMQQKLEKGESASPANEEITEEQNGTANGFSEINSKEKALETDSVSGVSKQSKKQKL
Chain of EZH2 Y641F mutant (PRC2 enzyme) (Q09028 whole entry partner): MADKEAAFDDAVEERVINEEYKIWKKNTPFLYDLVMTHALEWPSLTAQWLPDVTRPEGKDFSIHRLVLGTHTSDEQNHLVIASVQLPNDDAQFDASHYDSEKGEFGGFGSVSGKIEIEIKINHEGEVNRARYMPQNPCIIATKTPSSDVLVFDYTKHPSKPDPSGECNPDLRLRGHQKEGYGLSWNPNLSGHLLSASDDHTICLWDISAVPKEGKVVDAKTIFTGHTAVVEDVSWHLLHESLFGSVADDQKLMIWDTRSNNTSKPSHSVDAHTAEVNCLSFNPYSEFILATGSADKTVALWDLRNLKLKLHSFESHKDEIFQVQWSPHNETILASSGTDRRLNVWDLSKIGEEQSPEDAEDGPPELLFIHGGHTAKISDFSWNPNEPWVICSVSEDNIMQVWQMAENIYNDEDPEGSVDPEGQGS
Chain of wild-type EZH2 (PRC2 enzyme) (Q15910 whole entry): as the sequence (Q15910 whole entry Y641F) above, with F641Y counted along it
Chain of wild-type EZH2 (PRC2 enzyme) (O75530 whole entry partner): as the sequence (O75530 whole entry partner) above
Chain of wild-type EZH2 (PRC2 enzyme) (Q15022 whole entry partner): as the sequence (Q15022 whole entry partner) above
Chain of wild-type EZH2 (PRC2 enzyme) (Q09028 whole entry partner): as the sequence (Q09028 whole entry partner) above

Compound	IC50 [1]	IC50 [2]	IC50 [3]	IC50 [4]
CCN(c1cc(Cl)cc(C(=O)NCc2c(C)n(C)[nH]c2=O)c1C)[C@H]1CC[C@H](N(C)Cc2ccc(OC)cc2)CC1 [Compound 56, 5-chloro-N-((1,5-dimethyl-3-oxo-2,3-dihydro-1H-pyrazol-4-yl)methyl)-3-(ethyl((trans)-4-((4-methoxybenzyl)(methyl)amino)cyclohexyl)amino)-2-methylbenzamide]	10.7 µM	0.025 µM	0.011 µM	4.68 µM
CCN(c1cc(Cl)cc(C(=O)NCc2c(C)n(C)[nH]c2=O)c1C)[C@H]1CC[C@H](N(C)Cc2cccc(OC)c2)CC1 [Compound 57, 5-chloro-N-((1,5-dimethyl-3-oxo-2,3-dihydro-1H-pyrazol-4-yl)methyl)-3-(ethyl((trans)-4-((3-methoxybenzyl)(methyl)amino)cyclohexyl)amino)-2-methylbenzamide]	6.05 µM	0.02 µM	0.01 µM	6.16 µM
CCn1[nH]c(=O)c(CNC(=O)c2cc(Cl)cc(N(CC)[C@H]3CC[C@H](N(C)Cc4cccc(OC)c4)CC3)c2C)c1C [Compound 63, 5-chloro-3-(ethyl ((trans)-4-((3-methoxybenzyl)-(methyl)-amino)-cyclohexyl)amino)-N-((1-ethyl-5-methyl-3-oxo-2,3-dihydro-1H-pyrazol-4-yl)methyl)-2-methylbenzamide]	1.55 µM	0.046 µM	0.012 µM	> 50 µM
CCn1nc(OC)c(CNC(=O)c2cc(Cl)cc(N(CC)[C@H]3CC[C@H](N(C)Cc4ccc(OC)cc4)CC3)c2C)c1C [Compound 70, 5-chloro-3-(ethyl((trans)-4-((4-methoxybenzyl)-(methyl)-amino)-cyclohexyl)-amino)-N-((1-ethyl-3-methoxy-5-methyl-1H-pyrazol-4-yl)methyl)-2-methylbenzamide]	3.61 µM	0.039 µM	0.012 µM	4.06 µM
CCN(c1cc(Cl)cc(C(=O)NCc2c(N3CCCC3)n(C)[nH]c2=O)c1C)[C@H]1CC[C@H](N(C)C)CC1 [Compound 81, 5-chloro-3-(((trans)-4-(dimethylamino)cyclohexyl) (ethyl)amino)-2-methyl-N-((1-methyl-3-oxo-5-(pyrrolidin-1-yl)-2,3-dihydro-1H-pyrazol-4-yl)methyl)benzamide]	1.26 µM	0.018 µM	0.005 µM	2.19 µM
CCOc1n[nH]c(C)c1CNC(=O)c1cc(Cl)cc(N(CC)[C@H]2CC[C@H](N(C)C)CC2)c1C [Compound 85, 5-chloro-3-(((trans)-4-(dimethylamino)cyclohexyl)(ethyl)amino)-N-((3-ethoxy-5-methyl-1H-pyrazol-4-yl)methyl)-2-methylbenzamide]	6.38 µM	35.2 µM	7.53 µM	> 50 µM
CCN(c1cc(Cl)cc(C(=O)NCc2c(OC)n(C)[nH]c2=O)c1C)[C@H]1CC[C@H](N(C)C)CC1 [Compound 86, 5-chloro-3-(ethyl((trans)-4-(dimethylamino)cyclohexyl]amino)-N-((5-methoxy-1-methyl-3-oxo-2,3-dihydro-1H-pyrazol-4-yl)methyl)-2-methylbenzamide]	1.13 µM	0.021 µM	0.001 µM	1.79 µM
